System: Jurkat cells
Test: Jurkat cell apoptosis induced by staurosporine (STS) treatment, imaged by light-field flow cytometry (LFC)
Type: cell-based, human
Conditions: 1-μM STS
Experimental: Jurkat cell apoptosis induced by staurosporine (STS) treatment and staining. Jurkat T cells (e.g., #88042803, Sigma-Aldrich) were cultured in RPMI with 10% FBS and 1% Pen-Strep as a modified RPMI medium at 37° C. and in a 5% CO2 environment. On the imaging day, 1 μM of STS was added to 4 cell dishes, incubating for 30, 60, 120, and 300 min, respectively, at 37° C. The following procedures for preparing cells in the 4 dishes were the same. After the treatment, cells were centrifuged (e.g., 500× g, 6 min, 37° C.) and resuspended into the modified RPMI medium. After two rounds of centrifuge-washing, cells were resuspended into 6 mL of modified RPMI medium. For fluorescence labeling, 250 nM of SYTO16 green stains were added to the culture dish, and the cells were incubated for 1 hour. At the halfway of incubation (30 min), 150 nM of Mito Tracker Deep Red FM stains were added to the culture dish. After another 30 min, cells were centrifuged (e.g., 500× g, 6 min, 37° C.) and resuspended into 6 mL of the 4% PFA fixation buffer. Cells were fixed at room temperature for 12 min. After fixation, cells were centrifuged (800× g, 6 min, room temperature) and resuspended into PBS twice. Finally, cells were stored in PBS for imaging flow cytometry.
Imaging morphological changes in staurosporine-treated Jurkat cells. […]

SMILES: CN[C@@H]1C[C@H]2O[C@@](C)([C@@H]1OC)n1c3ccccc3c3c4c(c5c6ccccc6n2c5c31)C(=O)NC4 [Staurosporine]
- cells showed apoptotic nuclei (after 5 h of treatment): over 53%
- Jurkat cell nuclear morphology (with the treatment period increased (30, 60, 120, 300 min)): reduced volumes and fragmented micronuclei
